Assay results from ChEMBL document CHEMBL1201862, “PubChem BioAssay data set” (2004).
Active and inactive are the calls of the source.

Legend:
Aminopeptidase N = target: T1, Aminopeptidase N (Plasmodium falciparum FcB1/Columbia, UniProt O96935); assay: P. falciparum M1AAP inhibitors, biochemical, fluorogenic H-Leu-NHMec substrate, 1536-well (AID 1445); design: species or system Plasmodium falciparum 3D7, 3D7
T1 sequence (O96935 whole entry): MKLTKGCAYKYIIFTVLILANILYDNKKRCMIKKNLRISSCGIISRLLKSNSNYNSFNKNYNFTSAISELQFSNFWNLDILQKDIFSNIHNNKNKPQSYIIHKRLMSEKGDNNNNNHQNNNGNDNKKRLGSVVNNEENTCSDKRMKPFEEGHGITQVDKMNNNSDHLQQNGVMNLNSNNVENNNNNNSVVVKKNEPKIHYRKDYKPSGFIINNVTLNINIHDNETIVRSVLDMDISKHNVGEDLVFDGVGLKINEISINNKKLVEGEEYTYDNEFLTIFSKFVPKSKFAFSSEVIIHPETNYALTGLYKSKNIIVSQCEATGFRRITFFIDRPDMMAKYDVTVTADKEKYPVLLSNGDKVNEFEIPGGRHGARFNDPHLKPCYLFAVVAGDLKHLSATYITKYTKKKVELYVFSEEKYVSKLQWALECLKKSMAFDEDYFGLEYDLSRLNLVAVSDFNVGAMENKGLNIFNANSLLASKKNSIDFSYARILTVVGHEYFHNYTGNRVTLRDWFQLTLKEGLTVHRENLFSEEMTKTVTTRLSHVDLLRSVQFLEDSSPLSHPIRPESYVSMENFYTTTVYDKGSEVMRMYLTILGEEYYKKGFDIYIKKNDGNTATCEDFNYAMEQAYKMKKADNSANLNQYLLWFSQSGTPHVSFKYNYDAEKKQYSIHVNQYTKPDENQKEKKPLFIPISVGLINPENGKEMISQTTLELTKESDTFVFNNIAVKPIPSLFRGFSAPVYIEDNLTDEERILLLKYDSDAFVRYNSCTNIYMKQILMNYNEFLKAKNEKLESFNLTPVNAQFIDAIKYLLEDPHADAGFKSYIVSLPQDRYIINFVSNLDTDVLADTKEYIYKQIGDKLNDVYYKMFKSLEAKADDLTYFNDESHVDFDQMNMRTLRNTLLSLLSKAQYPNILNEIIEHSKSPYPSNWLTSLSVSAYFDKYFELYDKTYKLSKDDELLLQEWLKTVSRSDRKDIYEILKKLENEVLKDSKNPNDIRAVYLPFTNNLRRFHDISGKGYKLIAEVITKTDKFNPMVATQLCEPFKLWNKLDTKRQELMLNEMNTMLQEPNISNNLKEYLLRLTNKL

Troponin, cardiac muscle = Troponin, cardiac muscle (Homo sapiens, UniProt P19429+P45379+P63316); assay: Fluorescence-based biochemical high throughput dose response assay for activators of the calcium sensitivity of cardiac Regulated Thin Filaments (RTF). [Related pubchem assays (depositor defined):AID493008, AID493018, AID504382, AID504383]; assay type: protein-complex assay
[1] = target: T2, Calpain-2 catalytic subunit (Sus scrofa, UniProt P43367); assay: pig calpain II inhibitor potency, dose response, biochemical, fluorogenic peptide substrate (AID 1420); assay type: functional
T2 sequence (P43367 whole entry): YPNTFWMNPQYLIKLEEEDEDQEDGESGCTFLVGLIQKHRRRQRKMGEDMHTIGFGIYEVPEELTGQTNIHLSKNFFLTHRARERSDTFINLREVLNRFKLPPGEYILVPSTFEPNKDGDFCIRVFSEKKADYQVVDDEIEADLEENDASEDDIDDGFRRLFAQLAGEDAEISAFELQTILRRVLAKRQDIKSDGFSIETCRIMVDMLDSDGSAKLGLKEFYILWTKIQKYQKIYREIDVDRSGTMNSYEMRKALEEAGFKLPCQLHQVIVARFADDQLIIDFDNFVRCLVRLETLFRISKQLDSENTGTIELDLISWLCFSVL

Hexokinase = Hexokinase (Trypanosoma brucei, UniProt Q38C41); assay: Confirmation assay for inhibitors of Trypanosoma brucei hexokinase 1-Analogue-first series. [Related pubchem assays (depositor defined):AID1430, AID1632, AID2516, AID2560, AID2579, AID2600, AID449725, AID492951]; assay type: functional
Hexokinase, sequence (Q38C41 whole entry): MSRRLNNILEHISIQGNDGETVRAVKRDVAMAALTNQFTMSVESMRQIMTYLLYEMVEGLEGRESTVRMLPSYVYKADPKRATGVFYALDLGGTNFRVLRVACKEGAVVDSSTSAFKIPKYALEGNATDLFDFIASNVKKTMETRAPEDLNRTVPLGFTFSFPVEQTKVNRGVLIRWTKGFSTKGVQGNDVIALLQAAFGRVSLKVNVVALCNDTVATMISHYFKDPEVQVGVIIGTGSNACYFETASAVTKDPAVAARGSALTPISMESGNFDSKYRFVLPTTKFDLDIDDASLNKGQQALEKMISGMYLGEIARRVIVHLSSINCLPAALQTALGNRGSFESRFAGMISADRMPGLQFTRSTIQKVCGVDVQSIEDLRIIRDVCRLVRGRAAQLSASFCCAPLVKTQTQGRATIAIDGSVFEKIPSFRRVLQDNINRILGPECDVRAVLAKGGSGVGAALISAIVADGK

Hexokinase HKDC1 = target: T3, Hexokinase HKDC1 (Homo sapiens, UniProt Q2TB90); assay: HKDC1 hexokinase activators, dose response, biochemical, W721R variant (AID 504730); assay type: functional
T3 sequence (Q2TB90 whole entry): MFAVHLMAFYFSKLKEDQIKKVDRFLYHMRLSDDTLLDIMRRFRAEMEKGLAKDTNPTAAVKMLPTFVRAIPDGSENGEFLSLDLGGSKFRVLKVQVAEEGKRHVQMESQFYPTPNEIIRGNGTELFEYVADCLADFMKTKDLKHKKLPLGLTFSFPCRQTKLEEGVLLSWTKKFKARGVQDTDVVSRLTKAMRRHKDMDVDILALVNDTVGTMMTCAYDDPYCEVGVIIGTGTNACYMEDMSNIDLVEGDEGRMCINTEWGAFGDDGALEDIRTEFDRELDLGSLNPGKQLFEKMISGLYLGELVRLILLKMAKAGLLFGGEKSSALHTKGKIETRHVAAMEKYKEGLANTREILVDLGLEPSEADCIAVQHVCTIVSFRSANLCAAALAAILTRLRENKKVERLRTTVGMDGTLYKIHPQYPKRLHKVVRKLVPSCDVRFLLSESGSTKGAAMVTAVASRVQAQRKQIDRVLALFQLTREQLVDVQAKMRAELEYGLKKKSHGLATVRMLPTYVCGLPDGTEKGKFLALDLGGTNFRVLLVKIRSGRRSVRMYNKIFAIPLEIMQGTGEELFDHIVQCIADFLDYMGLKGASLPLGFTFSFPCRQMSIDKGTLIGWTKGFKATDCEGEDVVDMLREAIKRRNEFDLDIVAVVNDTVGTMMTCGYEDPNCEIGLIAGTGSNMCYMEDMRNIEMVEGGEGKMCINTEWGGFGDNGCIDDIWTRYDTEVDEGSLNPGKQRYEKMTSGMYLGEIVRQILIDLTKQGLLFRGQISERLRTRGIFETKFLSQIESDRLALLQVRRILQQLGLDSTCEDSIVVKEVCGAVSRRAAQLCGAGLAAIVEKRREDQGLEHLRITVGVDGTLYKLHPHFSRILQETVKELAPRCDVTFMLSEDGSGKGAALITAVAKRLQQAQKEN

[2] = target: T4, Zinc finger protein mex-5 (Caenorhabditis elegans, UniProt Q9XUB2); assay: MEX-5/TCR-2 RNA interaction inhibitors, dose response, biochemical, C. elegans, fluorescence polarization (AID 1960)
T4 sequence (Q9XUB2 whole entry): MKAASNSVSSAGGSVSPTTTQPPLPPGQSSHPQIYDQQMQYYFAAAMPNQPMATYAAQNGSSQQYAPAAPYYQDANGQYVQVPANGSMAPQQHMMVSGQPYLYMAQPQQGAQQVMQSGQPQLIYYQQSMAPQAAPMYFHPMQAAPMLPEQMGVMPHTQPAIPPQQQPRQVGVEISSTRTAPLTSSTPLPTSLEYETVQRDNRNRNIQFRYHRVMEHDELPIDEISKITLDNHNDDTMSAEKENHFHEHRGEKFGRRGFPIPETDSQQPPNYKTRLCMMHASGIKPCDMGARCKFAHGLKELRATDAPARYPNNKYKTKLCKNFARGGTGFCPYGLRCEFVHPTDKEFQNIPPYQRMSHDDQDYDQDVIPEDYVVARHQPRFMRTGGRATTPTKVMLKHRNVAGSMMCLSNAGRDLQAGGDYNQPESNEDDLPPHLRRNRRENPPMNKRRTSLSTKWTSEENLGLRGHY

[3] = target: T5, RNA-binding protein pos-1 (Caenorhabditis elegans, UniProt G5EF15); assay: inhibitors of POS-1/mex-3 RNA binding, dose response, biochemical, fluorescence polarization (AID 1964);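 also: purified POS-1 fused to maltose binding protein made in E. coli; potency of compounds blocking POS-1 binding to fluorescent RNA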
T5 sequence (G5EF15 whole entry): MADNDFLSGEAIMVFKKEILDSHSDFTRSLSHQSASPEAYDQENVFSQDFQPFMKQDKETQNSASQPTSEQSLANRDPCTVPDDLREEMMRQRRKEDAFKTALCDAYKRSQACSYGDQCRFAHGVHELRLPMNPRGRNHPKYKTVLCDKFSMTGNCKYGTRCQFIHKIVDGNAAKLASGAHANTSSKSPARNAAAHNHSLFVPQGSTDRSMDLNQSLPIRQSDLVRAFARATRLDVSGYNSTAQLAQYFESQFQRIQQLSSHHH

ORF 73 = ORF 73 (Human herpesvirus 8, UniProt O40947); assay: inhibitors of C-LANA binding to LBS DNA, dose response, biochemical, fluorescence polarization, cherry-picked samples (AID 504725); design: species or system Human gammaherpesvirus 8;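 also: fluorescence polarization of a labeled DNA duplex reporting LANA DNA binding; potency is for inhibitors that block LANA binding to the DNA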
ORF 73, sequence (O40947 whole entry): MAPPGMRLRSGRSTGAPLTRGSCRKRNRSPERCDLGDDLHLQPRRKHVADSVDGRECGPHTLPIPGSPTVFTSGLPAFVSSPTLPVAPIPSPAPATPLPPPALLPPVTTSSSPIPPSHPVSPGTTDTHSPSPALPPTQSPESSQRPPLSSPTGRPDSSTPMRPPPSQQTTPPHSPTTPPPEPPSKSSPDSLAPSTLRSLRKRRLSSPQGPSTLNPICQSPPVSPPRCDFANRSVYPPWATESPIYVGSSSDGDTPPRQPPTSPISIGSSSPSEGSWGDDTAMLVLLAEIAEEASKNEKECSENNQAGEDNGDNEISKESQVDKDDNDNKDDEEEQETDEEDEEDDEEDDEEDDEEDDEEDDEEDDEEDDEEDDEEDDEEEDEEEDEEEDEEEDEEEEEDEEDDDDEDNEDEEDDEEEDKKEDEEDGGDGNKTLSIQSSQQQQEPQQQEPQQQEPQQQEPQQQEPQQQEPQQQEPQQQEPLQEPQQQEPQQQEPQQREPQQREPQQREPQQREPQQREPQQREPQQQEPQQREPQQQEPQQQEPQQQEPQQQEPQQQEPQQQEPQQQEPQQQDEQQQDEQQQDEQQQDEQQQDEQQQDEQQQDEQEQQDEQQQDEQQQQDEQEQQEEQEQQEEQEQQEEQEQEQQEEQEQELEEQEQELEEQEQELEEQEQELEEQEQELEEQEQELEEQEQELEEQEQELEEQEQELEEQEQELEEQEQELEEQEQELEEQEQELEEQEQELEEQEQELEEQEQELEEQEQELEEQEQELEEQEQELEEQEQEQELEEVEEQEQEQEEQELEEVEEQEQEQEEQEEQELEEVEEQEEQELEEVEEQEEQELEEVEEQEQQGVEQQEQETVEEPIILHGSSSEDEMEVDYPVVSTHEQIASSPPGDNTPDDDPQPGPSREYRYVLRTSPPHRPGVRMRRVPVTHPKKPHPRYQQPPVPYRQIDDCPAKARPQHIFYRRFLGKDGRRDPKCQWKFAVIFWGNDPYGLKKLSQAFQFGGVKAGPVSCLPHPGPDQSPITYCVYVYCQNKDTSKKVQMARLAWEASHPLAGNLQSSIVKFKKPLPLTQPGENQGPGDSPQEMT

[4] = target: T6, Corticotropin-releasing factor receptor 2/Corticotropin-releasing factor-binding protein (Homo sapiens, UniProt P24387+Q13324); assay: activators of CRF receptor 2 with binding protein – uHTS hits, confirmation (AID 602473); assay type: functional; conditions: read-out: EC50_Mean
T6 sequence (Q13324 whole entry): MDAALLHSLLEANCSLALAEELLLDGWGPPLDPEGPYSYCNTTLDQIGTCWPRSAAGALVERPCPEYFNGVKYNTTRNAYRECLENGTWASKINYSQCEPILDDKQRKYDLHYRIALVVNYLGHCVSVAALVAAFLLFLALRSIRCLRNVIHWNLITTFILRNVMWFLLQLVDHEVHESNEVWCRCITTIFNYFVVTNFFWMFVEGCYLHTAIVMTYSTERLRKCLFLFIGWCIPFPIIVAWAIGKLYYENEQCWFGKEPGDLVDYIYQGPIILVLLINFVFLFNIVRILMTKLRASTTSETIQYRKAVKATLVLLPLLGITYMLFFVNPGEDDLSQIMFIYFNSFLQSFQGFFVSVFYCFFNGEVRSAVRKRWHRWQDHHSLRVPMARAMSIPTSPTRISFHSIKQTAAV
T6 sequence (P24387 whole entry): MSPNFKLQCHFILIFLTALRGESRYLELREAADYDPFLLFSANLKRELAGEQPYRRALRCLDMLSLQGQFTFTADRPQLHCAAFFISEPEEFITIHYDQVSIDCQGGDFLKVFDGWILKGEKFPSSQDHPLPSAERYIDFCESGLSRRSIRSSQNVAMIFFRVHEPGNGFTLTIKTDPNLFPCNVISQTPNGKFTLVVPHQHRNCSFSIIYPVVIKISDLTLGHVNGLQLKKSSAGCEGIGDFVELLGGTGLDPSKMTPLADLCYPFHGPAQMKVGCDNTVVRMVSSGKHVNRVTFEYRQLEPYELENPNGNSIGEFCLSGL

[5] = target: T7, Short transient receptor potential channel 4 (Mus musculus, UniProt Q9QUQ5); assay: TRPC4 positive allosteric modulators, dose response, cell-based, HEK293 TRPC4/mu-opioid, Fluo-4 calcium, EC20 DAMGO (AID 434941); assay type: functional
T7 sequence (Q9QUQ5 whole entry): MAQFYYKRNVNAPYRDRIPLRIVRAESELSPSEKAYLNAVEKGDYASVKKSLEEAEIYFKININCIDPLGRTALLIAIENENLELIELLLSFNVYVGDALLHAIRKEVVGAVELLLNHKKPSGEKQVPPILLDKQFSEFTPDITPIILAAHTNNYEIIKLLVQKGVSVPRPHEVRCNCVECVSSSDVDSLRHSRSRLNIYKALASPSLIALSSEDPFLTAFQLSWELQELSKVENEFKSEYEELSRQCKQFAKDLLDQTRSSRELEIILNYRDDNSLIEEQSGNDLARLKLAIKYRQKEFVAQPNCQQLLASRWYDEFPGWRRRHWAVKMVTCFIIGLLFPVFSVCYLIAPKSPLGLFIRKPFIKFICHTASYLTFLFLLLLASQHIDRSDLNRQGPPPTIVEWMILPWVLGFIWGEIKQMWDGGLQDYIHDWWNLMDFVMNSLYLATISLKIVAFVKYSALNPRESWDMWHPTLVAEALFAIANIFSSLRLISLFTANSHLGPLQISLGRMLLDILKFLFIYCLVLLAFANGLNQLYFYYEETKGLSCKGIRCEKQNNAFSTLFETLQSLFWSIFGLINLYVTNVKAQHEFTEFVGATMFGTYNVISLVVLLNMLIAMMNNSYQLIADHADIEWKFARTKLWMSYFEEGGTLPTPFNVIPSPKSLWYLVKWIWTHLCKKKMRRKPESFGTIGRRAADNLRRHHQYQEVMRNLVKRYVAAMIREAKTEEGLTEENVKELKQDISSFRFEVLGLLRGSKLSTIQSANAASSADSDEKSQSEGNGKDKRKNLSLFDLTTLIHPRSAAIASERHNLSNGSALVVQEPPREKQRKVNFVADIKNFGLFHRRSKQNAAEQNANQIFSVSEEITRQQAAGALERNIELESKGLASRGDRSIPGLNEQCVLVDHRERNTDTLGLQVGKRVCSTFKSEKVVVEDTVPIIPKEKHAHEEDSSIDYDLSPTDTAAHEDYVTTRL

[6] = target: Voltage-dependent T-type calcium channel subunit alpha-1H (Homo sapiens, UniProt O95180); assay: Cav3.2 T-type channel inhibitors, cell-based, synthetic library set 1, calcium flux (AID 493022); assay type: functional
Voltage-dependent T-type calcium channel subunit alpha-1H, sequence (O95180 whole entry): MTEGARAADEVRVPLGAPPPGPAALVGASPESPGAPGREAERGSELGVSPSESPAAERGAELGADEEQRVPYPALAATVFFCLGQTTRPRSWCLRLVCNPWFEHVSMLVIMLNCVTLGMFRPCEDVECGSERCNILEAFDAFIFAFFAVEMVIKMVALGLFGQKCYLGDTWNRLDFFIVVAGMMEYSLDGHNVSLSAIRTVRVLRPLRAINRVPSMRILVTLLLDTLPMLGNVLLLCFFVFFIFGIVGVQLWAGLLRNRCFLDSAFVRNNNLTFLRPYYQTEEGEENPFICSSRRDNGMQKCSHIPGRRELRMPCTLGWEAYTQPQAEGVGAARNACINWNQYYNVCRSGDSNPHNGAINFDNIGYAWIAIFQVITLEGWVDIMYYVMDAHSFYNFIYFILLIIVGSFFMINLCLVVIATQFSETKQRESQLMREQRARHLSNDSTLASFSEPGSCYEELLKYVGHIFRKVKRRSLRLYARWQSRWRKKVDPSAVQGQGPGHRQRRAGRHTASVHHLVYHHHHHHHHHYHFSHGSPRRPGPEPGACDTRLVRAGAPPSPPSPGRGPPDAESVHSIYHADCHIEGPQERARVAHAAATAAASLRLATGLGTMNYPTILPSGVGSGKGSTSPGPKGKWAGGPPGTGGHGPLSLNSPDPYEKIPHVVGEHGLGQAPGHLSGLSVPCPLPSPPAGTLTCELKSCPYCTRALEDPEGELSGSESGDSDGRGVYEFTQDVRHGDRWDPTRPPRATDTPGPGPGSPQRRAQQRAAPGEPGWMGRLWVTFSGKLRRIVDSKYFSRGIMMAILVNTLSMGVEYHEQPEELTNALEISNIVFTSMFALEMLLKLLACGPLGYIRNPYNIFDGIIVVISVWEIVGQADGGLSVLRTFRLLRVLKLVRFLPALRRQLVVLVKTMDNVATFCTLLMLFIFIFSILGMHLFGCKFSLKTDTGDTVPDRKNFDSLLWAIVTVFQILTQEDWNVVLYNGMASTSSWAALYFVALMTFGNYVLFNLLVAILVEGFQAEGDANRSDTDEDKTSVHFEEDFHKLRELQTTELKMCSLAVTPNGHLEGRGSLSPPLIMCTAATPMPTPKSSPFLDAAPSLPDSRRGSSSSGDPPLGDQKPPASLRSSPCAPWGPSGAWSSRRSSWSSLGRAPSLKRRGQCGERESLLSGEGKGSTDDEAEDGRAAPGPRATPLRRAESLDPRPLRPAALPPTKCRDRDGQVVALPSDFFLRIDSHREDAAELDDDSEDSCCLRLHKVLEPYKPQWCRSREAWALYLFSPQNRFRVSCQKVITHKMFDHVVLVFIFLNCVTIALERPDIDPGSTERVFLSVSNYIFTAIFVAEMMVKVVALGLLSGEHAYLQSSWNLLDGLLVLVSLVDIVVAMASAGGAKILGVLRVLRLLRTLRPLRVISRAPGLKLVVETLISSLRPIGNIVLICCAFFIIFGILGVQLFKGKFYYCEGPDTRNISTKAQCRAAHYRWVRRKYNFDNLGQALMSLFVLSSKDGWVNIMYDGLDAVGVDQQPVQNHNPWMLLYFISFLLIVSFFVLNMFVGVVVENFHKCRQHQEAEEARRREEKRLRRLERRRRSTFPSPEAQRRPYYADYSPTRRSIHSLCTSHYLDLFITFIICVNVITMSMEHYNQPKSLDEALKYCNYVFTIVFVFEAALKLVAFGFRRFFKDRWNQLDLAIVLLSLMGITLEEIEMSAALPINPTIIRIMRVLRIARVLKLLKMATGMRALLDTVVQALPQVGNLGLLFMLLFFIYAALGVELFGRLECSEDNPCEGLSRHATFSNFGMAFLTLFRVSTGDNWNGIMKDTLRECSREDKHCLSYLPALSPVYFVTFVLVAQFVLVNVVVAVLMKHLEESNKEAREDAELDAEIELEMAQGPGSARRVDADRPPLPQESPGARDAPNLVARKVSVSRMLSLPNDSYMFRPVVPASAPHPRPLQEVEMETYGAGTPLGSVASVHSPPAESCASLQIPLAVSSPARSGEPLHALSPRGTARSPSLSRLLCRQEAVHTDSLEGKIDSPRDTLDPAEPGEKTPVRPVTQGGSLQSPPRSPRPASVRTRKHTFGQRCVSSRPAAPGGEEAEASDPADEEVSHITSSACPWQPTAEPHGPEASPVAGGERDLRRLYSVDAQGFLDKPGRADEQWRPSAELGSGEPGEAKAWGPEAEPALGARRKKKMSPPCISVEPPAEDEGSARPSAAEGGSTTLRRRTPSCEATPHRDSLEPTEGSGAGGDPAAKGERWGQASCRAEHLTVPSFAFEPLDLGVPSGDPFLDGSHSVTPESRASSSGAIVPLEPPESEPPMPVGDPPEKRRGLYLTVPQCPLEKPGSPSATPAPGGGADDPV

[7] = target: T7, Short transient receptor potential channel 4; assay: mouse TRPC4 channel activators, dose response, cell-based, HEK293 TRPC4/mu-opioid, Fluo-4 calcium (AID 434937); assay type: functional

## COc1ccc(/C=C/C(=O)NC(=S)Nc2ccc(C(=O)O)cc2)cc1
Aminopeptidase N
  IC50: 53 µM (active)
Troponin, cardiac muscle
  EC50: > 71.5 µM (inactive)
[1]
  IC50: > 50 µM (not active)

## Cc1ccccc1NC(=O)Cn1sc2ccccc2c1=O
Hexokinase
  IC50: 8.52 µM (active)

## COc1ccccc1NS(=O)(=O)c1cc([N+](=O)[O-])ccc1N/N=C/c1c(C)[nH]c2ccccc12
Troponin, cardiac muscle
  EC50: 2.57 µM (active)

## CCN(CC)C(=O)c1ccc(C(=O)c2c(C)cc(C)cc2C)cc1
Hexokinase HKDC1
  EC50: > 80 µM (inactive)

## O=C(c1ccccc1)n1sc2ccccc2c1=O
Hexokinase
  IC50: > 25 µM (inactive)

## Clc1ccc(C2=CC(c3ccco3)n3ncnc3N2)cc1 (stereo unspecified)
[2]
  EC50: 3.36 µM (active)
[3]
  EC50: 24.7 µM (inconclusive)
ORF 73
  AC50: 171 µM (active)
[4]
  EC50: 8.29 µM (active)

## COc1ccc(Cl)cc1C(=O)NCCN(C)C
[5]
  EC50: 0.67 µM (active)

## CC(Oc1ccccc1)C(=O)Nc1nnc(-c2ccc3c(c2)OCCO3)o1 (stereo unspecified)
[6]
  EC50: 10 µM (active)

## O=C(COc1ccc(F)cc1Cl)Nc1nnc(-c2ccc(F)c(F)c2)o1
[6]
  EC50: 1.1 µM (active)

## CCOC(=O)c1c(NC(=O)COC(=O)Cc2c[nH]c3ccccc23)sc(C(=O)N(C)C)c1C
[5]
  EC50: 0.42 µM (active)
[7]
  EC50: 5.96 µM (active)
